From patent US11464770B2, “Anticancer pharmaceutical composition” (NATIONAL CANCER CENTER, priority 2016, dated 2022)
pIC50: −log10 of the molar value. Where two headings read alike, the source gives them in different places.

Assays:
renal cancer cell lines = experiment: Cell based assay, cell viability (CellTiter-Glo), renal cancer cell lines; conditions: Homo sapiens; ACHN cells
Description: (§1) Commercially available bladder cancer, prostate cancer, lung cancer, breast cancer, blood cancer, pancreatic cancer, colorectal cancer, brain cancer, neuroblastoma, melanoma, liver cancer, cervical carcinoma, ovarian cancer, renal cancer, and papilloma cell lines were each treated with trypsin-EDTA and cultured, followed by being seeded in each well of a 96 well plate. After 24 hours of treatment at constant temperature, the respective cells were treated with the candidate compound so that a final concentration became 0 to 2 μM. The treated cells were additionally cultured for 72 hours, and cell viability was measured by using an ATP detection method (CellTiter-Glo® Luminescent Cell Viability Assay, Promega).

[1] = system: pancreatic cancer cell lines (e.g. MIA PaCa-2); experiment: Cell based assay, cell viability (CellTiter-Glo), pancreatic cancer cell lines; conditions: Homo sapiens
Description: as §1

neuroblastoma cell lines = experiment: Cell based assay, cell viability (CellTiter-Glo), neuroblastoma cell lines; conditions: Homo sapiens; SH-SY5Y cell line
Description: as §1

[2] = pancreatic cancer cell line AsPC-1, 72 hours, read-out: IC50, AsPC-1
[3] = pancreatic cancer cell line BxPC-3, 72 hours, read-out: IC50, BxPC-3
[4] = pancreatic cancer cell line CFPAC-1, 72 hours, read-out: IC50, CFPAC-1
[5] = pancreatic cancer cell line Capan-1, 72 hours, read-out: IC50, Capan-1
[6] = pancreatic cancer cell line Capan-2, 72 hours, read-out: IC50, Capan-2
[7] = pancreatic cancer cell line MIA PaCa-2, 72 hours, read-out: IC50, MIA PaCa-2
[8] = pancreatic cancer cell line PANC-1, 72 hours, read-out: IC50, PANC-1

| SMILES | pIC50 (renal cancer cell lines) | pIC50 [1, 2] | pIC50 [1, 3] | pIC50 [1, 4] | pIC50 [1, 5] | pIC50 [1, 6] | pIC50 [1, 7] | pIC50 [1, 8] | pIC50 (neuroblastoma cell lines) |
| --- | --- | --- | --- | --- | --- | --- | --- | --- | --- |
| CSc1[nH]c2ccc(F)cc2c(=O)c1C(C)=O [Compound 8, 1-(6-fluoro-4-hydroxy-2-(methylthio)quinolin-3-yl)ethan-1-one] | < 5.70 | < 5.70 | < 5.70 | < 5.00 | < 5.70 | < 5.70 | < 5.70 | < 5.70 | < 5.70 |
| CC(=O)c1c([S+]([O-])Cc2cccc(S(F)(F)(F)(F)F)c2)[nH]c2c(Br)ccc(Cl)c2c1=O (stereo not drawn) [Compound 77, 3-acetyl-8-bromo-5-chloro-2-((3-(pentafluoro--sulfanyl)benzyl)sulfinyl)quinolin-4(1H)-one] | < 5.70 | < 5.70 | < 5.70 | < 5.00 | < 5.70 | < 5.70 | 5.86 | < 5.70 | < 5.70 |
| CC(=O)c1c([S+]([O-])Cc2ccc(SC(F)(F)F)cc2)[nH]c2c(Cl)ccc(Cl)c2c1=O (stereo not drawn) [Compound 79, 3-acetyl-5,8-dichloro-2-((4-((trifluoromethyl)thio)benzyl)sulfinyl)quinolin-4(1H)-one] | < 5.70 | < 5.70 | < 5.70 | < 5.00 | < 5.70 | < 5.70 | < 5.70 | < 5.70 | < 5.70 |
| CC(=O)c1c(SCc2cc(F)cc(F)c2)[nH]c2c(Br)ccc(Cl)c2c1=O [Compound 45, 3-acetyl-8-bromo-5-chloro-2-((3,5-difluorobenzyl)thio)quinolin-4(1H)-one] | < 5.70 | < 5.70 | < 5.70 | < 5.00 | < 5.70 | < 5.70 | < 5.70 | < 5.70 | < 5.70 |
| CC(=O)c1c([S+]([O-])c2ccc(Br)cc2)[nH]c2c(Br)ccc(Cl)c2c1=O (stereo not drawn) [Compound 17, 3-acetyl-8-bromo-2-((4-bromophenyl)sulfinyl)-5-chloroquinolin-4(1H)-one] | < 5.70 | < 5.70 | < 5.70 | < 5.00 | < 5.70 | < 5.70 | < 5.70 | < 5.70 | < 5.70 |
| CC(=O)c1c([S+]([O-])Cc2ccccc2)nc2c(Br)ccc(Cl)c2c1O (stereo not drawn) [Compound 4] | < 5.70 | < 5.70 | < 5.70 | < 5.00 | < 5.70 | < 5.70 | 5.87 | < 5.70 | < 5.70 |
| CC(=O)c1c(SCc2cc(Cl)ccc2Cl)[nH]c2c(Br)ccc(Cl)c2c1=O [Compound 43, 3-acetyl-8-bromo-5-chloro-2-((2,5-dichlorobenzyl)thio)quinolin-4(1H)-one] | < 5.70 | < 5.70 | < 5.70 | < 5.00 | < 5.70 | < 5.70 | < 5.70 | < 5.70 | < 5.70 |
| CC(=O)c1c([S+](C)[O-])n(S(=O)(=O)C(F)(F)F)c2c(Br)ccc(Cl)c2c1=O (stereo not drawn) [Compound 36, 3-acetyl-8-bromo-5-chloro-2-(methylsulfinyl)-1-((trifluoromethyl)sulfonyl)quinolin-4(1H)-one] | < 5.70 | < 5.70 | < 5.70 | < 5.00 | < 5.70 | < 5.70 | < 5.70 | < 5.70 | < 5.70 |
| CC(=O)c1c([S+]([O-])Cc2ccc(-n3cccn3)nc2)[nH]c2c(Br)ccc(Cl)c2c1=O (stereo not drawn) [Compound 99, 2-(((6-(1H-pyrazol-1-yl)pyridin-3-yl)methyl)sulfinyl)-3-acetyl-8-bromo-5-chloroquinolin-4(1H)-one] | 5.92 | 5.83 | < 5.70 | < 5.00 | 5.70 | < 5.70 | 6.14 | < 5.70 | 6.35 |
| CC(=O)c1c([S+]([O-])Cc2ccc(C#N)s2)[nH]c2c(Br)ccc(Cl)c2c1=O (stereo not drawn) [Compound 98, 5-(((3-acetyl-8-bromo-5-chloro-4-oxo-1,4-dihydroquinolin-2-yl)sulfinyl)methyl)thiophene-2-carbonitrile] | 5.74 | < 5.70 | < 5.70 | < 5.00 | < 5.70 | < 5.70 | 5.90 | < 5.70 | 6.08 |
| CC(=O)c1c([S+]([O-])CN2C(=O)c3ccccc3C2=O)[nH]c2c(Cl)ccc(Cl)c2c1=O (stereo not drawn) [Compound 90, 2-(((3-acetyl-5,8-dichloro-4-oxo-1,4-dihydroquinolin-2-yl)sulfinyl)methyl)isoindoline-1,3-dione] | < 5.70 | < 5.70 | < 5.70 | < 5.00 | < 5.70 | < 5.70 | < 5.70 | < 5.70 | < 5.70 |
| CC(=O)c1c([S+]([O-])Cc2ccc(C(F)(F)F)nc2C)[nH]c2c(Br)ccc(Cl)c2c1=O (stereo not drawn) [Compound 102, 3-acetyl-8-bromo-5-chloro-2-(((2-methyl-6-(trifluoromethyl)pyridin-3-yl)methyl)sulfinyl)quinolin-4(1H)-one] | 5.79 | 5.81 | < 5.70 | < 5.00 | 5.78 | < 5.70 | 6.16 | < 5.70 | 6.28 |
| CC(=O)c1c([S+]([O-])Cc2ccc(Cl)nc2)[nH]c2c(Br)ccc(Cl)c2c1=O (stereo not drawn) [Compound 104, 3-acetyl-8-bromo-5-chloro-2-(((6-chloropyridin-3-yl)methyl)sulfinyl)quinolin-4(1H)-one] | 5.92 | < 5.70 | < 5.70 | < 5.00 | 5.80 | < 5.70 | 6.10 | < 5.70 | 6.22 |
| O=C(c1c([S+]([O-])Cc2ccc(SC(F)(F)F)cc2)[nH]c2c(Br)ccc(Cl)c2c1=O)C1CC1 (stereo not drawn) [Compound 101, 8-bromo-5-chloro-3-(cyclopropanecarbonyl)-2-((4-((trifluoromethyl)thio)benzyl)sulfinyl)quinolin-4(1H)-one] | < 5.70 | < 5.70 | < 5.70 | < 5.00 | < 5.70 | < 5.70 | 5.74 | < 5.70 | 5.85 |
| CC(=O)c1c(SCc2cccc(C#N)c2)[nH]c2c(Br)ccc(Cl)c2c1=O [Compound 27, 3-(((3-acetyl-8-bromo-5-chloro-4-oxo-1,4-dihydroquinolin-2-yl)thio)methyl)benzonitrile] | < 5.70 | < 5.70 | < 5.70 | < 5.00 | < 5.70 | < 5.70 | < 5.70 | < 5.70 | < 5.70 |
| CC(=O)c1c([S+](C)[O-])n(S(=O)(=O)c2ccc(C(C)(C)C)cc2)c2c(Br)ccc(Cl)c2c1=O (stereo not drawn) [Compound 42, 3-acetyl-8-bromo-1-((4-(tert-butyl)phenyl)sulfonyl)-5-chloro-2-(methylsulfinyl)quinolin-4(1H)-one] | < 5.70 | < 5.70 | < 5.70 | < 5.00 | < 5.70 | < 5.70 | < 5.70 | < 5.70 | < 5.70 |
| CC(=O)c1c([S+]([O-])C(C)C)[nH]c2c(Br)ccc(Cl)c2c1=O (stereo not drawn) [Compound 25, 3-acetyl-8-bromo-5-chloro-2-(isopropylsulfinyl)quinolin-4(1H)-one] | < 5.70 | < 5.70 | < 5.70 | < 5.00 | < 5.70 | < 5.70 | < 5.70 | < 5.70 | < 5.70 |
| CC(=O)c1c([S+](C)[O-])[nH]c2c(Br)ccc(Cl)c2c1=O (stereo not drawn) [Compound 1, 3-acetyl-8-bromo-5-chloro-2-(methylsulfinyl)quinolin-4(1H)-one] | < 5.70 | < 5.70 | < 5.70 | < 5.00 | < 5.70 | < 5.70 | 5.80 | < 5.70 | < 5.70 |
